Assay results as given in ChEMBL document CHEMBL4017512 (J Med Chem, 2017).

Columns and labels:
[1] = tested on: HCT-116; test: Antiproliferative activity against human HCT116 cells after 72 hrs by phosphatase assay; assay type: functional, cell-based; conditions: HCT-116, 72 h
[2] = Cytotoxicity against human HCT116/VM46 cells assessed as reduction in cell viability after 72 hrs by phosphatase assay; assay type: cell-based; conditions: HCT-116/VM46, 72 h
[3] = tested on: L1210; test: Antiproliferative activity against mouse L1210 cells after 72 hrs by phosphatase assay; assay type: functional, cell-based; conditions: L1210, 72 h

Compound | IC50 [1] [nM] | IC50 [3] [nM] | IC50 [2] [nM]
CC[C@]1(NC(=O)c2ccncc2)C[C@H]2CN(CCc3c([nH]c4ccccc34)[C@@](C(=O)OC)(c3cc4c(cc3OC)N(C)[C@H]3[C@@](O)(C(=O)OC)[C@H](OC(C)=O)[C@]5(CC)C=CCN6CC[C@]43[C@@H]65)C2)C1 | 0.4 | 0.4 | 55
CC[C@]1(NC(=O)C2CCC2)C[C@H]2CN(CCc3c([nH]c4ccccc34)[C@@](C(=O)OC)(c3cc4c(cc3OC)N(C)[C@H]3[C@@](O)(C(=O)OC)[C@H](OC(C)=O)[C@]5(CC)C=CCN6CC[C@]43[C@@H]65)C2)C1 | 5.4 | 5.4 | 85
CC[C@]1(NC(=O)c2cccs2)C[C@H]2CN(CCc3c([nH]c4ccccc34)[C@@](C(=O)OC)(c3cc4c(cc3OC)N(C)[C@H]3[C@@](O)(C(=O)OC)[C@H](OC(C)=O)[C@]5(CC)C=CCN6CC[C@]43[C@@H]65)C2)C1 | 0.6 | 0.6 | 6.7
CCCCCC(=O)N[C@@]1(CC)C[C@H]2CN(CCc3c([nH]c4ccccc34)[C@@](C(=O)OC)(c3cc4c(cc3OC)N(C)[C@H]3[C@@](O)(C(=O)OC)[C@H](OC(C)=O)[C@]5(CC)C=CCN6CC[C@]43[C@@H]65)C2)C1 | 40 | 55 | 450
CC[C@]1(NC(=O)c2ccc(C)cc2)C[C@H]2CN(CCc3c([nH]c4ccccc34)[C@@](C(=O)OC)(c3cc4c(cc3OC)N(C)[C@H]3[C@@](O)(C(=O)OC)[C@H](OC(C)=O)[C@]5(CC)C=CCN6CC[C@]43[C@@H]65)C2)C1 | 0.45 | 0.5 | 4.5
CC[C@]1(NC(=O)c2ccc3c(c2)CCO3)C[C@H]2CN(CCc3c([nH]c4ccccc34)[C@@](C(=O)OC)(c3cc4c(cc3OC)N(C)[C@H]3[C@@](O)(C(=O)OC)[C@H](OC(C)=O)[C@]5(CC)C=CCN6CC[C@]43[C@@H]65)C2)C1 | 0.25 | 0.3 | 2.4
CCCCCCCC(=O)N[C@@]1(CC)C[C@H]2CN(CCc3c([nH]c4ccccc34)[C@@](C(=O)OC)(c3cc4c(cc3OC)N(C)[C@H]3[C@@](O)(C(=O)OC)[C@H](OC(C)=O)[C@]5(CC)C=CCN6CC[C@]43[C@@H]65)C2)C1 | 60 | 50 | 420
CC[C@]1(NC(=O)/C=C/c2ccoc2)C[C@H]2CN(CCc3c([nH]c4ccccc34)[C@@](C(=O)OC)(c3cc4c(cc3OC)N(C)[C@H]3[C@@](O)(C(=O)OC)[C@H](OC(C)=O)[C@]5(CC)C=CCN6CC[C@]43[C@@H]65)C2)C1 | 0.7 | 0.7 | 20
CC[C@]1(NC(=O)c2ccc(OCc3ccccc3)cc2)C[C@H]2CN(CCc3c([nH]c4ccccc34)[C@@](C(=O)OC)(c3cc4c(cc3OC)N(C)[C@H]3[C@@](O)(C(=O)OC)[C@H](OC(C)=O)[C@]5(CC)C=CCN6CC[C@]43[C@@H]65)C2)C1 | 5.7 | 5.4 | 55
CC[C@]1(NC(=O)C(C)(C)C)C[C@H]2CN(CCc3c([nH]c4ccccc34)[C@@](C(=O)OC)(c3cc4c(cc3OC)N(C)[C@H]3[C@@](O)(C(=O)OC)[C@H](OC(C)=O)[C@]5(CC)C=CCN6CC[C@]43[C@@H]65)C2)C1 | 3600 | 2800 | 4100
CC[C@]1(NC(=O)c2ccc3c(c2)OCCO3)C[C@H]2CN(CCc3c([nH]c4ccccc34)[C@@](C(=O)OC)(c3cc4c(cc3OC)N(C)[C@H]3[C@@](O)(C(=O)OC)[C@H](OC(C)=O)[C@]5(CC)C=CCN6CC[C@]43[C@@H]65)C2)C1 | 0.5 | 0.6 | 5.3
CC[C@]1(NC(=O)c2ccccn2)C[C@H]2CN(CCc3c([nH]c4ccccc34)[C@@](C(=O)OC)(c3cc4c(cc3OC)N(C)[C@H]3[C@@](O)(C(=O)OC)[C@H](OC(C)=O)[C@]5(CC)C=CCN6CC[C@]43[C@@H]65)C2)C1 | 50 | 55 | 460
CC[C@]1(NC(=O)c2ccc3ccsc3c2)C[C@H]2CN(CCc3c([nH]c4ccccc34)[C@@](C(=O)OC)(c3cc4c(cc3OC)N(C)[C@H]3[C@@](O)(C(=O)OC)[C@H](OC(C)=O)[C@]5(CC)C=CCN6CC[C@]43[C@@H]65)C2)C1 | 2.9 | 3.1 | 7.7
CC[C@]1(N=[N+]=[N-])C[C@H]2CN(CCc3c([nH]c4ccccc34)[C@@](C(=O)OC)(c3cc4c(cc3OC)N(C)[C@H]3[C@@](O)(C(=O)OC)[C@H](OC(C)=O)[C@]5(CC)C=CCN6CC[C@]43[C@@H]65)C2)C1 | – | – | 5500
CC[C@@H]1C[C@H]2CN(CCc3c([nH]c4ccccc34)[C@@](C(=O)OC)(c3cc4c(cc3OC)N(C)[C@H]3[C@@](O)(C(=O)OC)[C@H](OC(C)=O)[C@]5(CC)C=CCN6CC[C@]43[C@@H]65)C2)C1 [ROSEAMINE] | – | – | 600
CC[C@]1(N)C[C@H]2CN(CCc3c([nH]c4ccccc34)[C@@](C(=O)OC)(c3cc4c(cc3OC)N(C)[C@H]3[C@@](O)(C(=O)OC)[C@H](OC(C)=O)[C@]5(CC)C=CCN6CC[C@]43[C@@H]65)C2)C1 | – | – | > 10000

Now from value to compound, other results behind:

IC50 [1] [nM] | IC50 [3] [nM] | Compound | IC50 [2] [nM]
2.7 | 4.2 | CC[C@]1(NC(=O)c2cccc(Cl)c2)C[C@H]2CN(CCc3c([nH]c4ccccc34)[C@@](C(=O)OC)(c3cc4c(cc3OC)N(C)[C@H]3[C@@](O)(C(=O)OC)[C@H](OC(C)=O)[C@]5(CC)C=CCN6CC[C@]43[C@@H]65)C2)C1 | 20
0.8 | 1.6 | CC[C@]1(NC(=O)c2ccc(NC(C)=O)cc2)C[C@H]2CN(CCc3c([nH]c4ccccc34)[C@@](C(=O)OC)(c3cc4c(cc3OC)N(C)[C@H]3[C@@](O)(C(=O)OC)[C@H](OC(C)=O)[C@]5(CC)C=CCN6CC[C@]43[C@@H]65)C2)C1 | 55
0.6 | 0.6 | CC[C@]1(NC(=O)c2ccc3ncoc3c2)C[C@H]2CN(CCc3c([nH]c4ccccc34)[C@@](C(=O)OC)(c3cc4c(cc3OC)N(C)[C@H]3[C@@](O)(C(=O)OC)[C@H](OC(C)=O)[C@]5(CC)C=CCN6CC[C@]43[C@@H]65)C2)C1 | 30
5.4 | 5.5 | CC[C@]1(NC(=O)c2ccc(-c3ccccc3)cc2)C[C@H]2CN(CCc3c([nH]c4ccccc34)[C@@](C(=O)OC)(c3cc4c(cc3OC)N(C)[C@H]3[C@@](O)(C(=O)OC)[C@H](OC(C)=O)[C@]5(CC)C=CCN6CC[C@]43[C@@H]65)C2)C1 | 60
0.7 | 0.7 | CC[C@]1(NC(=O)c2ccco2)C[C@H]2CN(CCc3c([nH]c4ccccc34)[C@@](C(=O)OC)(c3cc4c(cc3OC)N(C)[C@H]3[C@@](O)(C(=O)OC)[C@H](OC(C)=O)[C@]5(CC)C=CCN6CC[C@]43[C@@H]65)C2)C1 | 12
1.4 | 2.7 | CC[C@]1(NC(=O)c2ccc(Br)cc2)C[C@H]2CN(CCc3c([nH]c4ccccc34)[C@@](C(=O)OC)(c3cc4c(cc3OC)N(C)[C@H]3[C@@](O)(C(=O)OC)[C@H](OC(C)=O)[C@]5(CC)C=CCN6CC[C@]43[C@@H]65)C2)C1 | 10
0.5 | 0.4 | CC[C@]1(NC(=O)c2ccc(SC)cc2)C[C@H]2CN(CCc3c([nH]c4ccccc34)[C@@](C(=O)OC)(c3cc4c(cc3OC)N(C)[C@H]3[C@@](O)(C(=O)OC)[C@H](OC(C)=O)[C@]5(CC)C=CCN6CC[C@]43[C@@H]65)C2)C1 | 6.8
4.8 | 4.3 | CCCc1ccc(C(=O)N[C@@]2(CC)C[C@H]3CN(CCc4c([nH]c5ccccc45)[C@@](C(=O)OC)(c4cc5c(cc4OC)N(C)[C@H]4[C@@](O)(C(=O)OC)[C@H](OC(C)=O)[C@]6(CC)C=CCN7CC[C@]54[C@@H]76)C3)C2)cc1 | 35
0.4 | 0.4 | CC[C@]1(NC(=O)c2ccc3ccncc3c2)C[C@H]2CN(CCc3c([nH]c4ccccc34)[C@@](C(=O)OC)(c3cc4c(cc3OC)N(C)[C@H]3[C@@](O)(C(=O)OC)[C@H](OC(C)=O)[C@]5(CC)C=CCN6CC[C@]43[C@@H]65)C2)C1 | 3.7
1.7 | 5.9 | CC[C@]1(NC(=O)c2ccc(OC(F)F)cc2)C[C@H]2CN(CCc3c([nH]c4ccccc34)[C@@](C(=O)OC)(c3cc4c(cc3OC)N(C)[C@H]3[C@@](O)(C(=O)OC)[C@H](OC(C)=O)[C@]5(CC)C=CCN6CC[C@]43[C@@H]65)C2)C1 | 17
2.3 | 5.4 | CC[C@]1(NC(=O)c2cccc(SC)c2)C[C@H]2CN(CCc3c([nH]c4ccccc34)[C@@](C(=O)OC)(c3cc4c(cc3OC)N(C)[C@H]3[C@@](O)(C(=O)OC)[C@H](OC(C)=O)[C@]5(CC)C=CCN6CC[C@]43[C@@H]65)C2)C1 | 20
0.6 | 0.6 | CC[C@]1(NC(=O)c2ccc(OC(C)(C)C)cc2)C[C@H]2CN(CCc3c([nH]c4ccccc34)[C@@](C(=O)OC)(c3cc4c(cc3OC)N(C)[C@H]3[C@@](O)(C(=O)OC)[C@H](OC(C)=O)[C@]5(CC)C=CCN6CC[C@]43[C@@H]65)C2)C1 | 6.8
10 | 25 | CC[C@]1(NC(=O)c2ccc(CC(C)C)cc2)C[C@H]2CN(CCc3c([nH]c4ccccc34)[C@@](C(=O)OC)(c3cc4c(cc3OC)N(C)[C@H]3[C@@](O)(C(=O)OC)[C@H](OC(C)=O)[C@]5(CC)C=CCN6CC[C@]43[C@@H]65)C2)C1 | 65
7.7 | 8.4 | CC[C@]1(NC(=O)c2ccccc2F)C[C@H]2CN(CCc3c([nH]c4ccccc34)[C@@](C(=O)OC)(c3cc4c(cc3OC)N(C)[C@H]3[C@@](O)(C(=O)OC)[C@H](OC(C)=O)[C@]5(CC)C=CCN6CC[C@]43[C@@H]65)C2)C1 | 75
